Here are results for two compounds from BindingDB's records for doi:10.1016/j.bmc.2009.07.009 (Universita Degli Studi Di Milano, 2009).

For the experiment, the target named is XIAP (Homo sapiens). In words: Fluorescence polarization was measured on an Ultra plate reader (Tecan) at excitation and emission wavelengths of 485 and 530 nm, respectively. The equilibrium binding curves were drawn by plotting millipolarization units (mP) as a function of recombinant XIAP concentration. All experiments were performed in black, flat-bottomed, 96-well mic. The conditions noted are these: pH 7.5.

The structures appear in SMILES notation.

Turning to `CC[C@H](N)C(=O)N[C@@H]1C(=O)N2[C@@H](CC[C@@H]1COC(=O)c1ccccc1)CC[C@H]2C(=O)NC(c1ccccc1)c1ccccc1` [1-aza-2-oxobicyclo[5.3.0]decane scaffold, 12b], the IC50 – broadly, the concentration needed to halve the response being measured – came out at 600 nM.

Turning to `CC[C@H](N)C(=O)N[C@@H]1C(=O)N2[C@@H](CC[C@@H]1CCN)CC[C@H]2C(=O)NC(c1ccccc1)c1ccccc1` [(3S,6S,7R,9aS)-6-[(2S)-2-aminobutanamido]-7-(2-aminoethyl)-N-(diphenylmethyl)-5-oxo-octahydro-1H-pyrrolo[1,2-a]azepine-3-carboxamide], the IC50 was 250 nM.
